Legend:
[1] = tested on: F. oxysporum f. sp. cubense (Foc TR4); experiment: Panama disease analysis of soil samples after metam sodium field injection; assay type: in vivo, Fusarium oxysporum f. sp. Cubense Tropical Race 4
Procedure: (§1) Metam Sodium Application. Metam sodium 510 SL (equivalent to 42% w/w) was applied to soil at the following doses: 0 liters per hectare (L/ha), 750 L/ha, 1500 L/ha, 2250 L/ha, 3000 L/ha.
(§2) Prior to injection, soil was prepared using a rototiller to break the soil structure from 0 cm to 80 cm deep, allowing for the smooth and even injection application by an injection machine. The soil was then leveled and made uniform, and the metam sodium was applied at two depths: 30 cm and 60 cm, using injection methods. The temperature was at a minimum of 10° C. and soil humidity was between 50 and 60% holding capacity, allowing the applied product to transform from metam sodium (liquid) to MITC (gas).
(§3) The application was made using an injection machine wherein the machine lowered shanks and began moving forward such that the shanks lowered to a depth of 60 cm and injectors applied the metam sodium into the soil. When the injection at 60 cm was complete, the process was repeated for the entire field at 30 cm. The treated soil in the field was then sealed using a packer roller (which was part of the injection machinery, located at the back end of the machine), after each application.
Soil Analysis. Soil samples were obtained at 20, 40, and 60 cm before application and every 24 hours beginning 48 hours after application, for seven days.
Plant Pathology Analysis. Soil samples used for Panama Disease and nematode analyses were aseptically isolated in culture medium and incubated for seven days at room temperature. Organisms were identified as follows: 20 grams of composite soil sample was diluted with 40 mL distilled water (dH2O); 1 drop of Tween 20 detergent was added, and the sample mixed. A 1 mL aliquot was taken from the solution and diluted with 9 mL dH2O; three further serial dilutions were made. From each dilution, 100 µL were spread on solid Komada growth medium (Sun et al., Phytopathology 68: 1672-1673, 1978). Growth could be seen 7 days after inoculation.

Cavendish banana plants = experiment: Musa field soil injection of metam sodium at 30 cm and 60 cm: banana plant growth and stage; assay type: in vivo
Procedure: as §1, §2, §3
Plant Selection and Transplantation. Cavendish banana plants were used for this investigation. In order to avoid plants already contaminated by other soil, all plants were produced in vitro using art-recognized methods. Plants were transplanted into the field 14 days after the final soil reading was taken (21 days after treatment).
Data Gathering. Data were gathered at monthly intervals beginning three months after banana plants were transplanted. A total of three data collection sessions were conducted. Data including the number of leaves, plant height, and girth size were collected.

[2] = 750 L/ha, six months after treatment
[3] = 1500 L/ha, six months after treatment
[4] = 2250 L/ha, six months after treatment
[5] = 3000 L/ha, six months after treatment

## CNC(=S)[S-].[Na+] [metam sodium, sodium N-methyldithiocarbamate]
[1]; Day 4, 60 cm, T4 2250 L/ha
  Panama Disease F. oxysporum f. sp. cubense: -
[1]; Day 4, 60 cm, T5 3000 L/ha
  Panama Disease F. oxysporum f. sp. cubense: -
[1]; Day 5, 20 cm, T2 750 L/ha
  Panama Disease F. oxysporum f. sp. cubense: -
[1]; Day 5, 20 cm, T3 1500 L/ha
  Panama Disease F. oxysporum f. sp. cubense: -
[1]; Day 5, 20 cm, T4 2250 L/ha
  Panama Disease F. oxysporum f. sp. cubense: -
[1]; Day 5, 20 cm, T5 3000 L/ha
  Panama Disease F. oxysporum f. sp. cubense: -
[1]; Day 5, 40 cm, T2 750 L/ha
  Panama Disease F. oxysporum f. sp. cubense: -
[1]; Day 5, 40 cm, T3 1500 L/ha
  Panama Disease F. oxysporum f. sp. cubense: -
[1]; Day 5, 40 cm, T4 2250 L/ha
  Panama Disease F. oxysporum f. sp. cubense: -
[1]; Day 5, 40 cm, T5 3000 L/ha
  Panama Disease F. oxysporum f. sp. cubense: -
[1]; Day 5, 60 cm, T2 750 L/ha
  Panama Disease F. oxysporum f. sp. cubense: -
[1]; Day 5, 60 cm, T3 1500 L/ha
  Panama Disease F. oxysporum f. sp. cubense: -
[1]; Day 5, 60 cm, T4 2250 L/ha
  Panama Disease F. oxysporum f. sp. cubense: -
[1]; Day 5, 60 cm, T5 3000 L/ha
  Panama Disease F. oxysporum f. sp. cubense: -
[1]; Day 6, 20 cm, T2 750 L/ha
  Panama Disease F. oxysporum f. sp. cubense: -
[1]; Day 6, 20 cm, T3 1500 L/ha
  Panama Disease F. oxysporum f. sp. cubense: -
[1]; Day 6, 20 cm, T4 2250 L/ha
  Panama Disease F. oxysporum f. sp. cubense: -
[1]; Day 6, 20 cm, T5 3000 L/ha
  Panama Disease F. oxysporum f. sp. cubense: -
[1]; Day 6, 40 cm, T2 750 L/ha
  Panama Disease F. oxysporum f. sp. cubense: -
[1]; Day 6, 40 cm, T3 1500 L/ha
  Panama Disease F. oxysporum f. sp. cubense: -
[1]; Day 6, 40 cm, T4 2250 L/ha
  Panama Disease F. oxysporum f. sp. cubense: -
[1]; Day 6, 40 cm, T5 3000 L/ha
  Panama Disease F. oxysporum f. sp. cubense: -
[1]; Day 6, 60 cm, T2 750 L/ha
  Panama Disease F. oxysporum f. sp. cubense: -
[1]; Day 6, 60 cm, T3 1500 L/ha
  Panama Disease F. oxysporum f. sp. cubense: -
[1]; Day 6, 60 cm, T4 2250 L/ha
  Panama Disease F. oxysporum f. sp. cubense: -
[1]; Day 6, 60 cm, T5 3000 L/ha
  Panama Disease F. oxysporum f. sp. cubense: -
[1]; Day 7, 20 cm, T2 750 L/ha
  Panama Disease F. oxysporum f. sp. cubense: -
[1]; Day 7, 20 cm, T3 1500 L/ha
  Panama Disease F. oxysporum f. sp. cubense: -
[1]; Day 7, 20 cm, T4 2250 L/ha
  Panama Disease F. oxysporum f. sp. cubense: -
[1]; Day 7, 20 cm, T5 3000 L/ha
  Panama Disease F. oxysporum f. sp. cubense: -
[1]; Day 7, 40 cm, T2 750 L/ha
  Panama Disease F. oxysporum f. sp. cubense: -
[1]; Day 7, 40 cm, T3 1500 L/ha
  Panama Disease F. oxysporum f. sp. cubense: -
[1]; Day 7, 40 cm, T4 2250 L/ha
  Panama Disease F. oxysporum f. sp. cubense: -
[1]; Day 7, 40 cm, T5 3000 L/ha
  Panama Disease F. oxysporum f. sp. cubense: -
[1]; Day 7, 60 cm, T2 750 L/ha
  Panama Disease F. oxysporum f. sp. cubense: -
[1]; Day 7, 60 cm, T3 1500 L/ha
  Panama Disease F. oxysporum f. sp. cubense: -
[1]; Day 7, 60 cm, T4 2250 L/ha
  Panama Disease F. oxysporum f. sp. cubense: -
[1]; Day 7, 60 cm, T5 3000 L/ha
  Panama Disease F. oxysporum f. sp. cubense: -
[1]; any of the treated groups (750-3000 L/ha), any day post application
  soil contamination: Foc TR4 detection: No Foc TR4 was detected
Cavendish banana plants; 750 L/ha
  effect on average girth size of banana plant: ~ 1 cm
  increase in average height of banana plant: ~ 5 cm
Cavendish banana plants; [2]
  effect on plants reaching bagging stage: did not have a meaningful effect
  percent of plants at either shooting or bagging stage: 11%
  percent of plants at shooting stage: 9%
Cavendish banana plants; 1500-3000 L/ha
  increase in average girth size of banana plant: 4-6 cm
  increase in average height of banana plant: 20-23 cm
Cavendish banana plants; [3]
  percent of plants at either shooting or bagging stage: 28%
  percent of plants at shooting stage: 10%
Cavendish banana plants; 1500 to 3000 L/ha, six months after treatment
  percent of plants at bagging stage: 11-19%
Cavendish banana plants; [4]
  percent of plants at either shooting or bagging stage: 27%
  percent of plants at shooting stage: 17%
Cavendish banana plants; [5]
  percent of plants at either shooting or bagging stage: 35%
  percent of plants at shooting stage: 22%
Cavendish banana plants; regardless of dose applied
  leaf increase (average number of leaves per banana plant): roughly 1.5 fold

From patent US20230157296A1, “METHODS OF REDUCING FUSARIUM CONTAMINATION” (Taminco BV, priority 2020, published 2023)
